From patent US20220370416A1, “COMPOUNDS AND METHODS FOR TARGETED DEGRADATION OF KRAS” (Arvinas Operations, Inc., priority 2020, published 2022) come the findings set out here.

Molecules are shown by their SMILES. A value given as a limit tells only on which side of the number the result lay.

Assay [1] has as its target T1, HiBit-KRAS^G12C (Homo sapiens, UniProt P01116, G12C). As to the kind of experiment: HiBit degradation assay in MiaPaCa-2 HiBit-KRas^G12C cells. In kind it is cell-based. The following applies: 24 hours; for Dmax: MIA PaCa-2, MiaPaCa-2 HiBit-KRas^G12C cells, maximum degradation; for DC50: MiaPaCa-2 HiBit-KRas^G12C cells. The gist of the method:
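MiaPaCa-2 cells with CRISPR N-terminal HiBit knock-in on one endogenous KRAS^G12C allele, treated 24 hours at 37° C with compound titrated 10 μM to 20 nM (0.1% or 0.5% DMSO). Lytic HiBit luminescence normalized to DMSO, 4-parameter fit giving DC50 and Dmax; points cytotoxic to […] cells by alamar blue excluded.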

Assay [2] has as its target T1, HiBit-KRAS^G12C. The experiment in a line: HiBit degradation assay in SW1573 HiBit-KRas^G12C cells. Further details: expressed in transfected cells; host or cells: SW1573 (clone E6), modified pcDNA3.1 vector, TK promoter. The note with it: 24 hours; for Dmax: SW1573, SW1573 HiBit-KRas^G12C; for DC50: SW1573 HiBit-KRas^G12C. In kind it is cell-based. The gist of the method: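 SW1573 cells stably expressing N-terminally HiBit-tagged KRAS G12C, under the TK promoter, were treated 24 h at 37 °C with 10 μM to 20 nM compound in 0.1% or 0.5% DMSO. Residual HiBit luminescence normalised to DMSO and fitted with a 4-parameter model for DC50 and Dmax. Points with ≥50% viability loss (alamar blue) excluded.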
(In general: With HiBiT, luminescence reflects the tagged protein that the partner subunit can reach.)

[3] abbreviates: 0.1% DMSO, read-out: KRas^G12C-HiBiT (MiaPaCa; 0.1% DMSO) DMax.
[4] abbreviates: 0.5% DMSO, read-out: KRas^G12C-HiBiT (MiaPaCa; 0.5% DMSO) DMax.
Where [5] appears, read: 0.1% DMSO, read-out: KRas^G12C-HiBit (SW1573; 0.1% DMSO) Dmax**.
Setting [6] is: 0.5% DMSO, read-out: KRas^G12C-HiBiT (SW1573; 0.5% DMSO) Dmax**.
[7] abbreviates: 0.1% DMSO, read-out: KRas^G12C-HIBit (SW1573; 0.1% DMSO) DC50*.
[8] abbreviates: read-out: KRas^G12C-HiBiT (MiaPaCa; 0.5% DMSO) IC50, 0.5% DMSO.
The mark [9] stands for this setting: read-out: KRas^G12C-HiBiT (SW1573; 0.5% DMSO) IC50***, 0.5% DMSO.
Where [10] appears, read: read-out: KRas^G12C-HiBiT (MiaPaCa; 0.1% DMSO) IC50, 0.1% DMSO.

T1 sequence (P01116 1-186 isoform P01116-2 G12C limits assumed): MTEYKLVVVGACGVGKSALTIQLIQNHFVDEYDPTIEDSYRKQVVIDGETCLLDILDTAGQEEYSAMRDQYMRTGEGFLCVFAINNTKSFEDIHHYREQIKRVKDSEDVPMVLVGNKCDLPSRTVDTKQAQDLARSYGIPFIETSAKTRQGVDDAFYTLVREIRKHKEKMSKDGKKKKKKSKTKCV

As for `C=C(F)C(=O)N1CCN(c2nc(OCCN3CCC(OCCOc4cc([C@H](C(=O)N5C[C@H](O)C[C@H]5C(=O)N[C@@H](C)c5ccc(-c6scnc6C)cc5)C(C)C)on4)CC3)nc3c(F)c(-c4cc(O)cc5ccccc45)c(Cl)cc23)C[C@@H]1CC#N` [Compound 16, (2S,4R)-1-[(2R)-2-{3-[2-({1-[2-({6-chloro-4-[(3S)-3-(cyanomethyl)-4-(2-fluoroprop-2-enoyl)piperazin-1-yl]-8-fluoro-7-(3-hydroxynaphthalen-1-yl)quinazolin-2-yl}oxy)ethyl]piperidin-4-yl}oxy)ethoxy]-1,2-oxazol-5-yl}-3-methylbutanoyl]-4-hydroxy-N-[(1S)-1-[4-(4-methyl-1,3-thiazol-5-yl)phenyl]ethyl]pyrrolidine-2-carboxamide], the Dmax on HiBit-KRAS^G12C [1] (setting [3]) was 35 to 70%; at HiBit-KRAS^G12C [1] (setting [4]), over 70%; at HiBit-KRAS^G12C [2] (setting [5]), over 70%; at HiBit-KRAS^G12C [2] (setting [6]) it was over 70%. For the same compound, the DC50 on HiBit-KRAS^G12C [2] (setting [7]) fell in the range of 0.1 to 1 µM.
Consider `C=CC(=O)N1CCN(c2nc(OCCN3CC[C@@H](COCC(=O)N[C@H](C(=O)N4C[C@H](O)C[C@H]4C(=O)N[C@@H](C)c4ccc(-c5scnc5C)cc4)C(C)(C)C)C3)nc3c(F)c(-c4cc(O)cc5ccccc45)c(Cl)cc23)C[C@@H]1CC#N` [Compound 140, (2S,4R)-1-[(2S)-2-(2-{[(3R)-1-[2-({6-chloro-4-[(3S)-3-(cyanomethyl)-4-(prop-2-enoyl)piperazin-1-yl]-8-fluoro-7-(3-hydroxynaphthalen-1-yl)quinazolin-2-yl}oxy)ethyl]pyrrolidin-3-yl]methoxy}acetamido)-3,3-dimethylbutanoyl]-4-hydroxy-N-[(1S)-1-[4-(4-methyl-1,3-thiazol-5-yl)phenyl]ethyl]pyrrolidine-2-carboxamide], for which the Dmax on HiBit-KRAS^G12C [1] (setting [4]) and on HiBit-KRAS^G12C [2] (setting [6]) was 35 to 70% throughout. The DC50 is over 1 µM on HiBit-KRAS^G12C [1] (setting [8]) and 0.1 to 1 µM on HiBit-KRAS^G12C [2] (setting [9]).
For the compound `C=CC(=O)N1CCN(c2nc(OCCN3CCC(OCCOCCOCC(=O)N[C@H](C(=O)N4C[C@H](O)C[C@H]4C(=O)N[C@@H](C)c4ccc(-c5scnc5C)cc4)C(C)(C)C)CC3)nc3c(F)c(-c4cc(O)cc5ccccc45)c(Cl)cc23)CC1` [Compound 60, (2S,4R)-1-[(2S)-2-{2-[2-(2-{[1-(2-{[6-chloro-8-fluoro-7-(3-hydroxynaphthalen-1-yl)-4-[4-(prop-2-enoyl)piperazin-1-yl]quinazolin-2-yl]oxy}ethyl)piperidin-4-yl]oxy}ethoxy)ethoxy]acetamido}-3,3-dimethylbutanoyl]-4-hydroxy-N-[(1S)-1-[4-(4-methyl-1,3-thiazol-5-yl)phenyl]ethyl]pyrrolidine-2-carboxamide], the Dmax on HiBit-KRAS^G12C [1] (setting [4]) was under 35%; at HiBit-KRAS^G12C [2] (setting [5]), under 35%; at HiBit-KRAS^G12C [2] (setting [6]), 35 to 70%. Also, the values for the DC50 at HiBit-KRAS^G12C [1] (setting [10]) and on HiBit-KRAS^G12C [2] (setting [7]) were over 1 µM and 0.1 to 1 µM, respectively.
On to `C=CC(=O)N1CCN(c2nc(OCCN3CCC(OCCOCC(=O)N[C@H](C(=O)N4C[C@H](O)C[C@H]4C(=O)N[C@@H](C)c4ccc(-c5scnc5C)cc4)C(C)(C)C)CC3)nc3c(F)c(-c4cc(O)cc5ccccc45)c(Cl)cc23)C[C@@H]1CC#N` [Compound 32, (2S,4R)-1-[(2S)-2-{2-[2-({1-[2-({6-chloro-4-[(3S)-3-(cyanomethyl)-4-(prop-2-enoyl)piperazin-1-yl]-8-fluoro-7-(3-hydroxynaphthalen-1-yl)quinazolin-2-yl}oxy)ethyl]piperidin-4-yl}oxy)ethoxy]acetamido}-3,3-dimethylbutanoyl]-4-hydroxy-N-[(1S)-1-[4-(4-methyl-1,3-thiazol-5-yl)phenyl]ethyl]pyrrolidine-2-carboxamide], for which the Dmax on HiBit-KRAS^G12C [1] (setting [3]) is 35 to 70%; at HiBit-KRAS^G12C [1] (setting [4]), over 70%; at HiBit-KRAS^G12C [2] (setting [5]), 35 to 70%; at HiBit-KRAS^G12C [2] (setting [6]), over 70%. Further, at HiBit-KRAS^G12C [2] (setting [7]), the DC50 was 0.1 to 1 µM.
For `C=CC(=O)N1CCN(c2nc(O[C@H](C)CN3CC(OCC(=O)N[C@H](C(=O)N4C[C@H](O)C[C@H]4C(=O)N[C@@H](C)c4ccc(-c5scnc5C)cc4)C(C)(C)C)C3)nc3c(F)c(-c4cc(O)cc5ccccc45)c(Cl)cc23)CC1` [Compound 41, (2S,4R)-1-[(2S)-2-[2-({1-[(2R)-2-{[6-chloro-8-fluoro-7-(3-hydroxynaphthalen-1-yl)-4-[4-(prop-2-enoyl)piperazin-1-yl]quinazolin-2-yl]oxy}propyl]azetidin-3-yl}oxy)acetamido]-3,3-dimethylbutanoyl]-4-hydroxy-N-[(1S)-1-[4-(4-methyl-1,3-thiazol-5-yl)phenyl]ethyl]pyrrolidine-2-carboxamide], the Dmax on HiBit-KRAS^G12C [1] (setting [3]) is under 35%; on HiBit-KRAS^G12C [2] (setting [5]), 35 to 70%. Further, the DC50 on HiBit-KRAS^G12C [1] (setting [10]) was 0.1 to 1 µM; on HiBit-KRAS^G12C [2] (setting [7]), over 1 µM.
Consider `C=CC(=O)N1CCN(c2nc(OCCN3CCC(COc4cc([C@@H](C(=O)N5C[C@H](O)C[C@H]5C(=O)N[C@@H](C)c5ccc(-c6scnc6C)cc5)C(C)C)on4)CC3)nc3c(F)c(-c4cc(O)cc5ccccc45)c(Cl)cc23)C[C@@H]1CC#N` [Compound 172, (2S,4R)-1-[(2S)-2-[3-({1-[2-({6-chloro-4-[(3S)-3-(cyanomethyl)-4-(prop-2-enoyl)piperazin-1-yl]-8-fluoro-7-(3-hydroxynaphthalen-1-yl)quinazolin-2-yl}oxy)ethyl]piperidin-4-yl}methoxy)-1,2-oxazol-5-yl]-3-methylbutanoyl]-4-hydroxy-N-[(1S)-1-[4-(4-methyl-1,3-thiazol-5-yl)phenyl]ethyl]pyrrolidine-2-carboxamide], for which the DC50 at HiBit-KRAS^G12C [1] (setting [8]) and at HiBit-KRAS^G12C [2] (setting [9]) was over 1 µM throughout.
As to `C=C(F)C(=O)N1CCN(c2nc(OCCN3CCC4(CC3)CN(c3cc([C@H](C(=O)N5C[C@H](O)C[C@H]5C(=O)N[C@@H](C)c5ccc(-c6scnc6C)cc5)C(C)C)on3)C4)nc3c(F)c(-c4cc(O)cc5ccccc45)c(Cl)cc23)C[C@@H]1CC#N` (atropisomer, axis not shown) [Compound 109, (2S,4R)-1-[(2R)-2-(3-{7-[2-({6-chloro-4-[(3S)-3-(cyanomethyl)-4-(2-fluoroprop-2-enoyl)piperazin-1-yl]-8-fluoro-7-(3-hydroxynaphthalen-1-yl)quinazolin-2-yl}oxy)ethyl]-2,7-diazaspiro[3.5]nonan-2-yl}-1,2-oxazol-5-yl)-3-methylbutanoyl]-4-hydroxy-N-[(1S)-1-[4-(4-methyl-1,3-thiazol-5-yl)phenyl]ethyl]pyrrolidine-2-carboxamide], the Dmax at HiBit-KRAS^G12C [1] (setting [4]) was over 70%; at HiBit-KRAS^G12C [2] (setting [6]), 35 to 70%. The DC50 at HiBit-KRAS^G12C [1] (setting [8]) and on HiBit-KRAS^G12C [2] (setting [9]) was under 0.1 µM each time.
